The assay relates to multi-drug resistant P. aeruginosa. Kind of assay: Susceptibility of the patient's positive bacterial culture. Type of assay: cell-based. The following applies: positive bacterial culture of the patient before treatment. The source says: The patient was a person with an 8 year history of chronic rhinosinusitis with daily and recurrent symptoms including facial congestion, facial pain and pressure, headaches and mucopurulent nasal drainage. The patient achieved limited success with previous treatments which included oral antibiotics, oral/nasal corticosteroids, antibiotic irrigation, saline rinses and suctioning. A positive bacterial culture indicated the presence of multi-drug resistant P. aeruginosa, susceptible only to colistimethate. Colistimethate was only commercially available as a solution for intravenous infusion, requiring hospitalization and constant monitoring for neurotoxicity and nephrotoxicity. In order to avoid the intravenous route of administration and the necessary hospitalization, a novel topical formulation was prescribed, consisting of: […]

colistimethate: the “susceptibility of cultured pathogen” value is recorded as “susceptible”.

The values above are taken from patent publication US20170007704A1, “CARRIER AND PHARMACEUTICAL COMPOSITIONS FOR INTRASINAL DELIVERY AND USES THEREOF” (priority 2015, published 2017).
